Experimental data taken from US7196110B2, “N-substituted tricyclic 3-aminopyrazoles as inhibitors for the treatment of cell proliferative disorders” (Janssen Phamaceutica N.V., priority 2002, dated 2007).
“And” between values parts separate entries of the source, which are not always exact repeats. Equal entries are not always repeated. Where two headings read alike, the source gives them in different places.

Assays:
[1] = target: T1, PDGF-receptor beta enzyme comprising the tyrosine kinase domain (Homo sapiens, UniProt P09619); assay: Inhibition of PDGF-receptor kinase activity (cell-free, PLC1 peptide, 33P Flashplate); type: biochemical; conditions: for inhibition at 10 µM: compound at 10 uM, read-out: Percent Inhibition @ 10 uM
T1 construct: from amino acid 545 to 1106 of GenBank Access NO: AAA36427
Procedure, shortened: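 The IC50 is the inhibitor level halving kinase activity relative to inhibitor-free wells, measured as 33P captured on a streptavidin-bound biotin-PLC1 peptide. The reaction ran 60 min at 30 °C in pH 8 Tris buffer with 1 mM DTT, 5 μM ATP and the 545–1106 kinase-domain enzyme.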

[2] = target: c-Abl kinase (Abelson murine leukemia virus, UniProt P00521); assay: Inhibition of c-Abl kinase activity (cell-free, Abl peptide substrate, 33P Flashplate); type: biochemical; conditions: IC50 for the c-Abl kinase activity
Procedure: The inhibitory activity of compounds within the scope of the invention on c-Abl kinase activity was tested according to the following procedure.
• 1. 10× Kinase Buffer [500 mM Tris-HCl pH=8, 100 mM MgCl2, 1 mM Na3VO4] • 2. 10 mM DTT [final concentration 1 mM] • 3. 10 mM ATP [final concentration 5 μM] (Gibco, Cat No:18330-019, Carlsbad, Calif.) • 4. ^33P-γ-ATP [NEG-602H; 2000–3000 Ci/mmol], 2 μCuries per well at 10 μCi/μl (0.2 μl/well) • 5. Abl enzyme (New England Biolabs, Cat No. P6050L, Beverly, Mass.) at 100 Units/μl use 10 Units/well (0.1 μl/well) • 6. Enzyme Dilution Buffer [50 mM Tris-HCl pH=8.0, 0.1% BSA] • 7. Wash/Stop Buffer [PBS+100 mM EDTA] • 8. NEN Streptavidin Flashplates (New England Nuclear, Cat No. SMP-103, Boston, Mass.). • 9. Abl Peptide Substrate (Biotin-[…]-amide) at 1 mM in 50 mM Tris-HCL pH=8.0. (Use at 1.0 μM). Procedure
Reagents were first mixed according to the following regimen:
The above reaction mixture was dispensed into each well of a Flashplate at 70 μl/well. To test the effect of a compound on Abl kinase activity, the test compound either in a fixed concentration or in serially diluted concentrations in 100% DMSO was added to appropriate wells at 1 μl/well.
Enzyme Abl was diluted in enzyme dilution buffer as following:
The kinase reaction was started by adding 30 μl of diluted Abl enzyme solution to each well on the Flashplate containing hot ATP (2 μCi/well) and Abl peptide substrate (at 1 μM final conc.), except wells of column 12 rows E and F, which were used to calculate the plate background. The Flashplate was swirled to mix and was incubated at 30° C. for 60 minutes. Then, the reaction mixture was discarded and the Flashplate was washed 3 times each with 200 μL Wash/Stop Buffer. Subsequently, each well on the Flashplate was filled with 200 μl of Wash/Stop buffer. The amount of ^33P retained in each well was measured using a Packard TopCount after the plate was sealed with a transparent plate sealer.
In order to test the potency of inhibition of present compounds, an IC50 for an individual compound was measured using the above procedure. As used herein, the IC50 for c-Abl kinase activity refers to the concentration of an inhibitor at which the activity of c-Abl kinase is reduced by one-half as compared with reactions containing no inhibitor.

[3] = PDGF-R kinase activity, read-out: IC50
[4] = read-out: IC50 (μM) on PDGF-R kinase activity

c-Abl kinase, sequence (P00521 115-385): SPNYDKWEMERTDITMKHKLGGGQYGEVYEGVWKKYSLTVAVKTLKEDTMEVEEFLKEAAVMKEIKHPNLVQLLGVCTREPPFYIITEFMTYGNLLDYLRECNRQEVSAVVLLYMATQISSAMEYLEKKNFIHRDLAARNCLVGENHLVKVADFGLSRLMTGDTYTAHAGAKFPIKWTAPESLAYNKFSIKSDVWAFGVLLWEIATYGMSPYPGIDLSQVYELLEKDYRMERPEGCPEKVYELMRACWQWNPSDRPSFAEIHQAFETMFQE
T1 sequence (P09619 545-1106): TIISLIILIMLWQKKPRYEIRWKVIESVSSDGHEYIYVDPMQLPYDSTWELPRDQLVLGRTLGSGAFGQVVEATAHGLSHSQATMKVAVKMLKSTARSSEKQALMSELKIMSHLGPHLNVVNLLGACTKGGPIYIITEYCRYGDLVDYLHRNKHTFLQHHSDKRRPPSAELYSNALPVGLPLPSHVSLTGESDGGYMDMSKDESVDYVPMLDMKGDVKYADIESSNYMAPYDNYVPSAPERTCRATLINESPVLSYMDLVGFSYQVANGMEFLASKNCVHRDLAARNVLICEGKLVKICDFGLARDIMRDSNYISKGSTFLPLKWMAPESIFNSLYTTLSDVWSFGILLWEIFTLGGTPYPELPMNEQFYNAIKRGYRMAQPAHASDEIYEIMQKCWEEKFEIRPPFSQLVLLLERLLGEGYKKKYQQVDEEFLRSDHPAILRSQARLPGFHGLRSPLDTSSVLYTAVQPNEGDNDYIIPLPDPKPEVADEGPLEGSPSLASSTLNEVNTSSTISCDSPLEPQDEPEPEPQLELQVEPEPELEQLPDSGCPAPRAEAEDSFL

IC50 [1, 4] [µM] | SMILES | inhibition at 10 µM ([1]; PDGF-R kinase activity) [%] | IC50 [1, 3] [µM] | IC50 [2]
 | COc1cc2c(cc1OC)-c1n[nH]c(Nc3ccccc3)c1C2 [Compound 2, (6,7-Dimethoxy-2,4-dihydro-indeno[1,2-c]pyrazol-3-yl)-phenyl-amine] | 91 | 0.006 | 11 nM
 | COc1cccc2c1Cc1c-2n[nH]c1Nc1ccccc1 [Compound 8] | 98 | 0.054 | 694 nM
 | COc1cc2c(cc1OC)-c1n[nH]c(Nc3ccc(F)cc3)c1C2 [Compound 13, (6,7-Dimethoxy-2,4-dihydro-indeno[1,2-c]pyrazol-3-yl)-(4-fluoro-phenyl)-amine] | 91 | 0.0065 | 173 nM
 | COc1cccc(Nc2[nH]nc3c2Cc2cc(OC)c(OC)cc2-3)c1 [Compound 29, (6,7-Dimethoxy-2,4-dihydro-indeno[1,2-c]pyrazol-3-yl)-(3-methoxy-phenyl)-amine] | 99 |  | 5 nM
 | COc1cc2c(cc1OC)-c1n[nH]c(Nc3cccc(C)c3)c1C2 [Compound 32, (6,7-Dimethoxy-2,4-dihydro-indeno[1,2-c]pyrazol-3-yl)-m-tolyl-amine] | 79 |  | 2 nM
 | COc1cc2c(cc1OC)-c1n[nH]c(Nc3cccc(CO)c3)c1C2 [Compound 36, [3-(6,7-Dimethoxy-2,4-dihydro-indeno[1,2-c]pyrazol-3-ylamino)-phenyl]-methanol] | 85 | 0.033 | 64 nM
 | COc1cc2c(cc1OC)-c1n[nH]c(Nc3cccc(O)c3)c1C2 [Compound 38, 3-(6,7-Dimethoxy-2,4-dihydro-indeno[1,2-c]pyrazol-3-ylamino)-phenol] | 74 | 0.031 | 2 nM
 | COc1cc(Nc2[nH]nc3c2Cc2cc(OC)c(OC)cc2-3)cc(OC)c1 [Compound 41, (6,7-Dimethoxy-2,4-dihydro-indeno[1,2-c]pyrazol-3-yl)-(3,5-dimethoxy-phenyl)-amine] | 83 | 0.0336 | 78 nM
 | COc1cc2c(cc1OC)-c1n[nH]c(Nc3cccc(Br)c3)c1C2 [Compound 44, (3-Bromo-phenyl)-(6,7-dimethoxy-2,4-dihydro-indeno[1,2-c]pyrazol-3-yl)-amine] | 94 | 0.00054 | 7 nM
 | COc1cc2c(cc1OC)-c1n[nH]c(Nc3cccc(OCc4ccccc4)c3)c1C2 [Compound 54, (3-Benzyloxy-phenyl)-(6,7-dimethoxy-2,4-dihydro-indeno[1,2-c]pyrazol-3-yl)-amine] | 76 | 0.0348 | 971 nM
 | CN(C)CCCOc1cccc2c1Cc1c-2n[nH]c1Nc1cccc(F)c1 [Compound 90, [5-(3-Dimethylamino-propoxy)-2,4-dihydro-indeno[1,2-c]pyrazol-3-yl]-(3-fluoro-phenyl)-amine] | 97 | 0.0087 | 10300 nM
 | COc1cc2c(cc1OC)-c1n[nH]c(Nc3cccc(C(N)=O)c3)c1C2 [Compound 116, 3-(6,7-Dimethoxy-2,4-dihydro-indeno[1,2-c]pyrazol-3-ylamino)-benzamide] | 96 | 0.0053 | 386 nM
 | COc1cccc(Nc2[nH]nc3c2Cc2cc(N)ccc2-3)c1 [Compound 118, N3-(3-Methoxy-phenyl)-2,4-dihydro-indeno[1,2-c]pyrazole-3,6-diamine] | 74 | 0.0213 | 427 nM
 | Nc1ccc2c(c1)Cc1c-2n[nH]c1Nc1cccc(Cl)c1 [Compound 119, N3-(3-Chloro-phenyl)-2,4-dihydro-indeno[1,2-c]pyrazole-3,6-diamine] | 90 | 0.0198 | 524 nM
 | CN1CCN(c2ccc3c(c2)Cc2c-3n[nH]c2Nc2cccc(Cl)c2)CC1 [Compound 124, (3-Chloro-phenyl)-[6-(4-methyl-piperazin-1-yl)-2,4-dihydro-indeno[1,2-c]pyrazol-3-yl]-amine] | 94 | 0.0163 | 1850 nM
 | Clc1cccc(Nc2[nH]nc3c2Cc2cc4c(cc2-3)OCO4)c1 [Compound 128, (3-Chloro-phenyl)-(2,9-dihydro-5,7-dioxa-2,3-diaza-cyclopenta[a]-s-indacen-1-yl)-amine] | 88 | 0.0596 | 313 nM
 | COc1cc2c(cc1OCCCN1CCOCC1)Cc1c-2n[nH]c1Nc1cccnc1 [Compound 129, [7-Methoxy-6-(3-morpholin-4-yl-propoxy)-2,4-dihydro-indeno[1,2-c]pyrazol-3-yl]-pyridin-3-yl-amine] | 53.5 | 0.0367 | 10800 nM and 2360 nM
 | COc1cc2c(cc1OCCCN1CCOCC1)Cc1c-2n[nH]c1Nc1cccc(Br)c1 [Compound 130, (3-Bromo-phenyl)-[7-methoxy-6-(3-morpholin-4-yl-propoxy)-2,4-dihydro-indeno[1,2-c]pyrazol-3-yl]-amine] | 94.5 | 0.00215 | 236 nM
 | COc1cc2c(cc1OCCCN1CCOCC1)Cc1c-2n[nH]c1Nc1cccc(Cl)c1 [Compound 132, (3-Chloro-phenyl)-[7-methoxy-6-(3-morpholin-4-yl-propoxy)-2,4-dihydro-indeno[1,2-c]pyrazol-3-yl]-amine] | 79 | 0.00537 | 665 nM
 | COC(=O)c1cccc(Nc2[nH]nc3c2Cc2cc(OCCCN4CCOCC4)c(OC)cc2-3)c1 [Compound 133, 3-[7-Methoxy-6-(3-morpholin-4-yl-propoxy)-2,4-dihydro-indeno[1,2-c]pyrazol-3-ylamino]-benzoic acid methyl ester] | 53 | 0.0379 | 498 nM
 | COc1cc2c(cc1OCCCN1CCOCC1)Cc1c-2n[nH]c1Nc1cccc(F)c1 [Compound 134, (3-Fluoro-phenyl)-[7-methoxy-6-(3-morpholin-4-yl-propoxy)-2,4-dihydro-indeno[1,2-c]pyrazol-3-yl]-amine] | 96 | 0.0101 | 1160 nM
 | COCCCOc1ccc2c(c1)Cc1c-2n[nH]c1Nc1ccccc1 [Compound 140, [6-(3-Methoxy-propoxy)-2,4-dihydro-indeno[1,2-c]pyrazol-3-yl]-phenyl-amine] | 56.5 | 0.0137 | 1410 nM
 | COc1cccc(Nc2[nH]nc3c2Cc2cc(OCCCN4CCCC4)c(OC)cc2-3)c1 [Compound 156, (3-Methoxy-phenyl)-[7-methoxy-6-(3-pyrrolidin-1-yl-propoxy)-2,4-dihydro-indeno[1,2-c]pyrazol-3-yl]-amine] | 87.5 | 0.001 | 89 nM
0.0051 | COc1cc2c(c3nc(C)oc13)CC1C(Nc3cccc(F)c3)=NN=C21 (stereo not shown) [Compound 605, (3-Fluoro-phenyl)-(4-methoxy-2-methyl-7,9-dihydro-3-oxa-1,6,7-triaza-cyclopenta[b]-as-indacen-8-yl)-amine] | 97.5 |  | 
 | COc1cc2c(c(Cc3ccccc3)c1O)-c1n[nH]c(Nc3cccc(F)c3)c1C2 [Compound 606, 8-Benzyl-3-(3-fluoro-phenylamino)-6-methoxy-2,4-dihydro-indeno[1,2-c]pyrazol-7-ol] | 53.5 |  | 
0.026 | COc1cc2c(cc1O)-c1n[nH]c(Nc3cccc(F)c3)c1C2 [Compound 608, 3-(3-Fluoro-phenylamino)-6-methoxy-2,4-dihydro-indeno[1,2-c]pyrazol-7-ol] | 106 |  | 
4.68 | COc1cc2c(cc1OC)-c1c(c(Nc3cccc(F)c3)nn1C)C2 [Compound 609] | 84 |  | 
9.38 | COc1cc2c(cc1OC)-c1nn(C)c(Nc3cccc(F)c3)c1C2 [Compound 610, (6,7-dimethoxy-2-methyl-1,4-dihydro-indeno[1,2-c]pyrazole-3-yl)-(3-fluoro-phenyl)-amine] | 51.5 |  | 
